Measurements published in ChEMBL document CHEMBL1201862, “PubChem BioAssay data set” (2004).
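1) Cells in 96-well plates. 2) Compound, 48 h, 5 concentrations. 3) Linear interpolation between surrounding doses. 4) Unreached endpoint = highest concentration. GI50 is the concentration that inhibits growth by half.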 Active and inactive are the calls of the source. No stated cut-off is given here; in the data, active = GI50 up to about 1.1 µM and inactive = higher.

How the values were obtained:
Test in all cases: growth of human tumour cells (NCI), 48 h
TK-10 = test system: TK-10
OVCAR-5 = test system: OVCAR-5
SK-OV-3 = test system: SK-OV-3
NCI-H23 = test system: NCI-H23
SF-539 = test system: SF-539
SK-MEL-2 = test system: SK-MEL-2
ACHN = test system: ACHN
HCT-15 = test system: HCT-15
OVCAR-4 = test system: OVCAR-4
M14 = test system: M14
SR = test system: SR
NCI-H522 = test system: NCI-H522
NCI-H226 = test system: NCI-H226
CAKI-1 = test system: CAKI-1
HT-29 = test system: HT-29
MCF7 = test system: MCF7
MDA-N = test system: MDA-N
SK-MEL-28 = test system: SK-MEL-28
OVCAR-3 = test system: OVCAR-3
SNB-75 = test system: SNB-75

| Structure (SMILES) | GI50 (TK-10) | GI50 (OVCAR-5) | GI50 (SK-OV-3) | GI50 (NCI-H23) | GI50 (SF-539) | GI50 (SK-MEL-2) | GI50 (ACHN) | GI50 (HCT-15) [µM] | GI50 (OVCAR-4) | GI50 (M14) | GI50 (SR) | GI50 (NCI-H522) | GI50 (NCI-H226) | GI50 (CAKI-1) | GI50 (HT-29) | GI50 (MCF7) | GI50 (MDA-N) | GI50 (SK-MEL-28) | GI50 (OVCAR-3) | GI50 (SNB-75) |
| --- | --- | --- | --- | --- | --- | --- | --- | --- | --- | --- | --- | --- | --- | --- | --- | --- | --- | --- | --- | --- |
| O=C(CCc1cccc(O)c1)NCCc1ccc(O)cc1 | > 100 µM (inactive) | > 100 µM (inactive) | > 100 µM (inactive) | > 100 µM (inactive) | > 100 µM (inactive) | > 100 µM (inactive) | 95.9 µM (inactive) | > 100 | > 100 µM (inactive) | > 100 µM (inactive) | > 100 µM (inactive) | 17.3 µM (inactive) | > 100 µM (inactive) | > 100 µM (inactive) | > 100 µM (inactive) | > 100 µM (inactive) | > 100 µM (inactive) | > 100 µM (inactive) | > 100 µM (inactive) |  |
| C[C@H]1C[C@H]2[C@@H]3C(C)(C)O[C@]4(O)C(=O)[C@]5(O)[C@@H](C)CC[C@H]1[C@]25C(=O)[C@]34C |  | 65.2 µM (inactive) | 82.4 µM (inactive) | 30.3 µM (inactive) | > 100 µM (inactive) | 31.3 µM (inactive) | 27.3 µM (inactive) | 33.9 |  | 71 µM (inactive) | 40.1 µM (inactive) | 18 µM (inactive) | 31.3 µM (inactive) | 39.4 µM (inactive) | 26 µM (inactive) | 41.3 µM (inactive) | 37.7 µM (inactive) |  | 27.4 µM (inactive) |  |
| COc1ccc(/C=N/N2C(=O)c3c(N)c(C#N)c(-c4ccccc4)c(-c4ccccc4)c3C2=O)cc1 | 42.4 µM (inactive) | > 100 µM (inactive) |  |  | > 100 µM (inactive) | > 100 µM (inactive) | 44.7 µM (inactive) | > 100 | 99.8 µM (inactive) | > 100 µM (inactive) | > 100 µM (inactive) | > 100 µM (inactive) | > 100 µM (inactive) | > 100 µM (inactive) |  | > 100 µM (inactive) | > 100 µM (inactive) | > 100 µM (inactive) | > 100 µM (inactive) | 88.7 µM (inactive) |
| O=C1OCCC12CN(Cc1ccccc1)N=N2 (configuration not stated) | > 100 µM (inactive) | > 100 µM (inactive) | > 100 µM (inactive) | > 100 µM (inactive) | > 100 µM (inactive) | > 100 µM (inactive) | 29.9 µM (inactive) | > 100 | > 100 µM (inactive) | > 100 µM (inactive) | 13.2 µM (inactive) | 49.9 µM (inactive) |  | 58.7 µM (inactive) | > 100 µM (inactive) | > 100 µM (inactive) | > 100 µM (inactive) | > 100 µM (inactive) | > 100 µM (inactive) |  |
| CC1(C)CCC[C@]2(C)[C@H]3[C@H](C#N)c4cc(O)c(O)cc4O[C@@]3(C)CC[C@@H]12 | > 10 µM (inactive) | > 10 µM (inactive) | > 10 µM (inactive) | > 10 µM (inactive) | > 10 µM (inactive) | > 10 µM (inactive) | > 10 µM (inactive) | > 10 | > 10 µM (inactive) | > 10 µM (inactive) | > 10 µM (inactive) | > 10 µM (inactive) | > 10 µM (inactive) | > 10 µM (inactive) |  | > 10 µM (inactive) | > 10 µM (inactive) | > 10 µM (inactive) | > 10 µM (inactive) |  |
| C/C(=C\COc1cc(O)c2c(c1)C(=O)c1cc(C)cc(O)c1C2=O)CCC1OC1(C)C (configuration not stated) | 40.3 µM (inactive) | > 100 µM (inactive) | > 100 µM (inactive) | > 100 µM (inactive) | 74 µM (inactive) | > 100 µM (inactive) | 40.9 µM (inactive) | 84.3 | 37.8 µM (inactive) | > 100 µM (inactive) | 13.9 µM (inactive) | 69.8 µM (inactive) |  | 21 µM (inactive) | > 100 µM (inactive) | 38.4 µM (inactive) | > 100 µM (inactive) | > 100 µM (inactive) | > 100 µM (inactive) | 28.2 µM (inactive) |
| CCOC(=O)c1c(SCCN2CCCCC2)n(-c2ccccc2)c(=S)n(-c2ccccc2)c1=O | 18 µM (inactive) | > 100 µM (inactive) | 36.2 µM (inactive) | 16.9 µM (inactive) |  | > 100 µM (inactive) | 17.7 µM (inactive) | 4.29 | 17.6 µM (inactive) | 28.6 µM (inactive) | 2.72 µM (inactive) | 16.7 µM (inactive) | 12.3 µM (inactive) |  | 15.3 µM (inactive) | 5.85 µM (inactive) | 18.5 µM (inactive) | 8.85 µM (inactive) | 9.57 µM (inactive) | 15 µM (inactive) |
| CC(C)CC1NC(=O)CCC(NC(=O)C(Cc2ccc(O)cc2)NC(=O)OCc2ccccc2)C(=O)NC(Cc2ccccc2)C(=O)NC(Cc2ccccc2)NC1=O (configuration not stated) | > 100 µM (inactive) | > 100 µM (inactive) | 0.578 µM (active) | > 100 µM (inactive) | > 100 µM (inactive) | > 100 µM (inactive) | > 100 µM (inactive) | > 100 | > 100 µM (inactive) | > 100 µM (inactive) | > 100 µM (inactive) |  | > 100 µM (inactive) | > 100 µM (inactive) | > 100 µM (inactive) | > 100 µM (inactive) | > 100 µM (inactive) | > 100 µM (inactive) | > 100 µM (inactive) | > 100 µM (inactive) |
| O=C1NC(Cc2c[nH]c3ccccc23)C(=O)N2C(C3CCCCC3)c3[nH]c4ccccc4c3C[C@@H]12 (some centres not stated) | 8.15 µM (inactive) | 20.7 µM (inactive) |  | 16.8 µM (inactive) |  | 14.4 µM (inactive) | 17.7 µM (inactive) | 12.4 | 11.1 µM (inactive) | 13.2 µM (inactive) | 7.45 µM (inactive) | 7.98 µM (inactive) | 24.2 µM (inactive) | 18.3 µM (inactive) | 14.9 µM (inactive) | 9.08 µM (inactive) | 11.1 µM (inactive) | 16.4 µM (inactive) | 2.38 µM (inactive) |  |
| CC1CNC(NS(=O)(=O)c2cc(C(=O)Nc3ccccc3)c(Cl)cc2S)=NN1 (configuration not stated) | > 100 µM (inactive) | 27.2 µM (inactive) | 81.5 µM (inactive) | 44.1 µM (inactive) | 38.4 µM (inactive) | 22.2 µM (inactive) | 69 µM (inactive) | 33.8 | 67.3 µM (inactive) | 26.4 µM (inactive) | 41.8 µM (inactive) | 23.4 µM (inactive) | 44.7 µM (inactive) | > 100 µM (inactive) | 38.8 µM (inactive) | 36.5 µM (inactive) | 24.9 µM (inactive) | 45.3 µM (inactive) | 41.4 µM (inactive) |  |
| CCN(CC)c1ccc(/C=C/C2=NN(c3cccc(S(=O)(=O)O)c3)C3(C2)SCC(=O)N3c2nc3ccccc3s2)cc1 (configuration not stated) | 23.1 µM (inactive) | > 100 µM (inactive) |  | 37.2 µM (inactive) | 33 µM (inactive) | 40.1 µM (inactive) | 25.8 µM (inactive) | 45.6 | 23.4 µM (inactive) | 41.8 µM (inactive) | 26.4 µM (inactive) | 18.5 µM (inactive) | 16.8 µM (inactive) | 76.6 µM (inactive) | 36.6 µM (inactive) | 25.6 µM (inactive) | 39 µM (inactive) | 80.4 µM (inactive) |  | 74.3 µM (inactive) |
| Clc1ccc(-c2cn3c(nc4ccccc43)c(/C=C/c3ccco3)n2)cc1 | 24 µM (inactive) | > 100 µM (inactive) | 90.2 µM (inactive) | 31.4 µM (inactive) | 71.1 µM (inactive) | 18.1 µM (inactive) | 37.9 µM (inactive) | 57.5 | 25.3 µM (inactive) | 58.1 µM (inactive) | 17.9 µM (inactive) |  | > 100 µM (inactive) |  | 62.8 µM (inactive) | 7.85 µM (inactive) | 72.8 µM (inactive) | 57.9 µM (inactive) | 34.4 µM (inactive) | 18.4 µM (inactive) |
| CCN(CC)CCCNc1nc2ccccc2[n+]([O-])n1 | > 100 µM (inactive) | > 100 µM (inactive) |  | > 100 µM (inactive) | > 100 µM (inactive) | > 100 µM (inactive) | > 100 µM (inactive) | > 100 | > 100 µM (inactive) | > 100 µM (inactive) | > 100 µM (inactive) | > 100 µM (inactive) | > 100 µM (inactive) | > 100 µM (inactive) | > 100 µM (inactive) | 50.9 µM (inactive) | > 100 µM (inactive) | > 100 µM (inactive) | > 100 µM (inactive) | 64.1 µM (inactive) |
| C[n+]1ccc2/c(=C\C#N)c3ccccc3n21 | 22 µM (inactive) | 37.3 µM (inactive) | 30.6 µM (inactive) | 11.4 µM (inactive) |  | 30.8 µM (inactive) | 39.2 µM (inactive) | > 100 | 21.1 µM (inactive) | 48.2 µM (inactive) | 18.2 µM (inactive) | 24.5 µM (inactive) | 32.5 µM (inactive) | > 100 µM (inactive) | 22.9 µM (inactive) | 20.5 µM (inactive) | 32.5 µM (inactive) | 23.1 µM (inactive) | 14.6 µM (inactive) |  |
| O=C1c2cc(Cc3ccccc3)c(=O)c(Cc3ccccc3)cc2C(=O)c2cc(Cc3ccccc3)c(=O)c(Cc3ccccc3)cc21 | > 100 µM (inactive) | > 100 µM (inactive) |  | > 100 µM (inactive) | > 100 µM (inactive) | > 100 µM (inactive) | > 100 µM (inactive) | > 100 | > 100 µM (inactive) | > 100 µM (inactive) | > 100 µM (inactive) | > 100 µM (inactive) | > 100 µM (inactive) | > 100 µM (inactive) | > 100 µM (inactive) | > 100 µM (inactive) | > 100 µM (inactive) | > 100 µM (inactive) | > 100 µM (inactive) | > 100 µM (inactive) |
